Read-outs that look alike come from different tables or passages of the source.
Key:
human topoisomerase II = target: T1, human topoisomerase II (Homo sapiens, UniProt P11388); assay: Mammalian topoisomerase II inhibition assay (topo II covalently attached to DNA, relative to mAMSA); assay type: biochemical; settings: read-out: topo II inh. EC50
T1 construct: Topo II was purified from late log phase suspension cultures of HeLa WIS; endogenous in cells; host or cells: HeLa WIS
Text: The inhibition of human topoisomerase II (hereafter topo II) was quantitated by a procedure adapted from that described by Trask et al., EMBO J., 3, 671-676 (1984). The assay quantitates the amount of topo II covalently attached to DNA at equilibrium during a topo II reaction. This assay determines the potential of a compound to stabilize this complex, which potential is closely related to the cytotoxicity of the compound.
Topo II was purified from late log phase suspension cultures of HeLa WIS by an adaptation of the method described by Per et al., Mol. Pharmacol., 32, 17-25 (1987).
Assays (in duplicate) were assembled at 4° C. Assay mix (25 μl) was distributed in Beckman (No. 265270) 1.5 mL microtiter tubes followed by the addition of 5 μl test compound to yield the final concentrations of assay components:
The assay mix including the test compound was incubated for 20 minutes at 37° C. The reaction was terminated at 37° C. by the addition of 3 μl 10% SDS followed by the addition of 266 μl 10 mM Tris-Cl pH 7.5, 20 μg/ml BSA, 20 μg/ml calf thymus DNA, 1% SDS.
A SDS/protein precipitate was formed by the addition of 28 μl 2.5M KCl followed by chilling on ice for a minimum of 10 minutes. The precipitate was collected and washed with a Brandell cell harvester on a GFB glass fiber filter membrane as follows. The contents of the assay tube were drawn up into the harvester. The tube was then rinsed 7× with 10 mM Tris-Cl pH 7.5, 1 mM EDTA and 100 mM KCl. The precipitate was washed with 1 L of a solution of 10 mM Tris-Cl pH 7.5, 1 mMEDTA, 100 mM KCl followed by 1 L of 95% ethyl alcohol and finally 0.5 L 70% of ethyl alcohol (per 48 samples in each case). After drying, CPM was determined by liquid scintillation counting with 5 ml Biofluor (NEN Research Products) or Readisafe (Beckman Instruments Inc.) cocktail.
Preparation of test compound--A stock solution (6 mg/ml) of test compound was prepared either in 0.1N sodium hydroxide or 0.2N hydrogen chloride. This solution then was diluted 1/5 into water and serially thereafter in either 0.02N sodium hydroxide or 0.04N hydrogen chloride, respectively. The stock solution and serial dilution of the test compound was stored at -20° C. prior to testing.
Screening of test compound--As an initial screen, the test compound was tested at a final concentration of 2, 20 and 200 μg/ml. The compound was then retested at a range of concentrations (usually 2-3×steps) bridging their approximate EC50 's, as estimated by the prescreen.
Controls--A solvent control which indicates the base level of topo II-DNA complex formed in the absence of the test compound was included in each test. A control, in which topo II was omitted, was included for each test compound at the highest drug concentration tested.
Reference Agent--A dose response curve with mAMSA at 0.01, 0.08, 0.16, 0.32, 1.0 and 10 μg/ml was included in each test.
The maximal DNA-topo II complex formed is taken as that equal to that formed at the nearly saturating dose of mAMSA (10 μg/ml).

[1] = tested on: P388 murine leukemia cells; assay: In vitro cytotoxicity, one-hour exposure, clonogenic survival of P388 cells; assay type: cell-based; settings: Mus musculus, read-out: in vitro cytotoxicity IC50, 1 hr exp.; P388, 1 hr exposure
Experimental: (§1) In vitro cytotoxicity was assayed by determining cell survival following exposure of P388 murine leukemia cells to a range of test compound concentrations. Cytotoxicity was quantitated following either a one-hour exposure or continuous exposure of P388 cells to test compound.
(§2) A Manual of Basic Technique. […] Briefly, following drug exposure cells were plated in soft agar and incubated (37°, 5% CO2) for 7-10 days during which time viable cells form visible colonies. Cytotoxicity following continuous exposure of cells to test compound was assayed by quantitating total P388 cells on a Coultier Counter following a 48-hour co-incubation of test compound with cells. P388 cells were maintained in log phase throughout the duration of cytotoxicity assays.
(§3) The percentage of cells surviving relative to an untreated control was graphed as a function of increasing drug concentration.

[2] = tested on: P388 murine leukemia cells; assay: In vitro cytotoxicity, continuous (48-hour) exposure of P388 cells; assay type: cell-based; settings: Mus musculus; P388, continuous exposure (48-hour); read-out: in vitro cytotoxicity IC50, cont. exp.
Experimental: as §1, §2, §3

[3] = In vivo antitumor assay, Panc03(sc); design: species or system mice; settings: mouse, in vivo, MTD
Text: Mice: Inbred: C3H/He and NCR-nu; and Hybrids: B6D2F1 (C57BL/6 females×DBA/2 males, CD2F1 (Balb/c females×DBS/2 males) and B6C3fl (C57BL/6×C3H) were bred at Wayne State University from strains obtained from the Frederick Cancer Research Facility, Frederick, Maryland or purchased from commercial suppliers.
Tumors: Murine Tumor: P388 and an adriamycin-resistant (ADR) subline P388/ADR leukemia and the following transplantable solid tumors of mice were used for in vivo testing: B16 melanoma (B16), pancreatic ductal adenocarcinoma No. 03 (Pane 03), colon adenocarcinoma No. 38 (colo 38), lung carcinoma No. 12 (LC 12), mammary ductal adenocarcinoma No. 16/C (Mam16C) and an adriamycin-resistant subline Mam16C/ADR. Human tumor: A single human tumor, mammary carcinoma MX-1 was used for in vivo testing. All tumors are in the Developmental Therapeutics Program frozen tumor respository, maintained by the Biological Testing Branch, Frederick Maryland. Each has a detailed description, code identification number, and list of references at the National Tumor Repository. Murine tumors were maintained in the mouse strain of origin and were transplanted in the appropriate F1 hydrid (or the strain of origin) for therapy trials. Human mammary carcinoma MX-1 (MX1) was maintained as a subcutaneous implant in either athymic Swiss (Cr: NIH(S)-nu) or athymic random bred (NCR-nu) mice and transplanted in NCR-nu for therapy trials.
Chemotherapy: For pancreatic ductal adenocarcinoma No. 3, colon adenocarcinoma No. 38 (colo 38), lung carcinoma No. 12 LC 12) and both adriamycin-sensitive (RP) and-resistant (ADR) mammary ductal adenocarcinoma No. 16 (Mam16) tumors, bilateral tumor implants were used to help ensure a more uniform tumor burden per mouse (thus reducing the requirement for greater numbers of mice per group). The animals necessary to begin an experiment were pooled, implanted bilaterally s.c. on day zero with 30-60 mg tumor fragments using a 12-gauge trocar, and again pooled before randomization to the various treatment and control groups. Chemotherapy was started within three days after tumor implantation while the number of cells per mouse was relatively small (1×10^7 -1×10^8 cells).
Quantitative end points used to assess antitumor activity included % Increased Life Span (% ILS), Tumor Cell Kill (Log10 kill), and Tumor Growth Inhibition (T/C). Long Term Survivors (45 or 60 day) were excluded from calculations of %ILS and Tumor Cell Kill.
The log10 cell kill was calculated from the following formula: [formula] where T-C is the tumor difference in the median day of death between the treated (T) and the control (C) groups and Td is the tumor doubling time (in days), the latter estimated from the best fit straight line from a log-linear growth plot of the control-group tumors in exponential growth. The conversion of the T-C values to log10 cell kill is possible because the Td for tumors regrowing post-treatment approximated the Td values of the tumors in untreated control mice.
Tumors were measured with a caliper once or twice weekly (as needed) until either tumors exceeded 1600 mg or cure was assured. Tumor weights were estimated from two-dimensional measurements: Tumor Weight (mg)=(a×b^2) / 2, where a and b are the tumor length and width (ram) respectively. Measurements were carried out simultaneously in both treatment and control groups. When the control group tumors reached approximately 750-1500 mg in size (median of group), the median tumor weight of each group was determined (including zeros). The T/C value in percent is an indication of antitumor effectiveness. The % T/C was calculated from the following formula for solid murine tumor models: [formula] where T and C are median tumor weights of the treatment and control groups, respectively. A T/C equal to or less than 42% is considered significant antitumor activity. […]

[4] = conc. achieving 50% of maximal effect of mAMSA, topo II from HeLa cells

T1 sequence (P11388 whole entry): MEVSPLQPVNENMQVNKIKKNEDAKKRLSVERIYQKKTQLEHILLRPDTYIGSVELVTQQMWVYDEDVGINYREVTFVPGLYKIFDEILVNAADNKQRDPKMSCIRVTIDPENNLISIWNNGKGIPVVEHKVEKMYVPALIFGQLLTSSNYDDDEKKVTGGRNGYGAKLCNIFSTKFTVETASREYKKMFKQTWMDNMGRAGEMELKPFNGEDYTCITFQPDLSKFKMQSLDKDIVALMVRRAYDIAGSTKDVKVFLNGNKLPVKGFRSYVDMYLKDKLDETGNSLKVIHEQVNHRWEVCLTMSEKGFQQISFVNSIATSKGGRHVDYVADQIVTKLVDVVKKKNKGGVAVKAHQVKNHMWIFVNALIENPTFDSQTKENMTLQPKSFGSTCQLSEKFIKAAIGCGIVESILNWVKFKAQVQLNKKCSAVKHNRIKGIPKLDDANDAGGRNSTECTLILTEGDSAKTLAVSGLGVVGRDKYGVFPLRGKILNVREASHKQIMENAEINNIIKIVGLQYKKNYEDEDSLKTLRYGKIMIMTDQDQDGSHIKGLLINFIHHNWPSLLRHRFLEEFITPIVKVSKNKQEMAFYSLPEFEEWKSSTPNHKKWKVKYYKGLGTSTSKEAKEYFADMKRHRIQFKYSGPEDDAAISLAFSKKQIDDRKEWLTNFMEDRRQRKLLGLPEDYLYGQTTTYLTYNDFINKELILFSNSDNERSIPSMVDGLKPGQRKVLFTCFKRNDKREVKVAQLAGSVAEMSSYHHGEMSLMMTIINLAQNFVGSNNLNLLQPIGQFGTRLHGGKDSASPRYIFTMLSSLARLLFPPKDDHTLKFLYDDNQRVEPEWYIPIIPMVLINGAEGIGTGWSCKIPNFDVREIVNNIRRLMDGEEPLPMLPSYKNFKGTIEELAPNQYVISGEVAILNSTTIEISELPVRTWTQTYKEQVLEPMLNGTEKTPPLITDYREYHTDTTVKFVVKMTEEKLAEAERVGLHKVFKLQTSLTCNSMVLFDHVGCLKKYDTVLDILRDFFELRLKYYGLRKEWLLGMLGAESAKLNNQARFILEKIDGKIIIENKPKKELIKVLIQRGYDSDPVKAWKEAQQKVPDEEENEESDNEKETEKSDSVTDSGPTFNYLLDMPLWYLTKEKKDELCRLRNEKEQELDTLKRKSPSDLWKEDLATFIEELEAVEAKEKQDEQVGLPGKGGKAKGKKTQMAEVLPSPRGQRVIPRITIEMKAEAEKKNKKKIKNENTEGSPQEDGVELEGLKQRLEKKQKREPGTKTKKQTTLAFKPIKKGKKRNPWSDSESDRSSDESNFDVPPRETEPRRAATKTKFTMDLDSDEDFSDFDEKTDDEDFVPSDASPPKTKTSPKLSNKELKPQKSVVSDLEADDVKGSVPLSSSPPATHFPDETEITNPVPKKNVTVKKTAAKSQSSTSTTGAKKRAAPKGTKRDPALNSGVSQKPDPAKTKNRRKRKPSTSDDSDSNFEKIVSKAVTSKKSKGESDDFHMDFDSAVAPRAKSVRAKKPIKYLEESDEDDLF

| SMILES | EC50 (human topoisomerase II; [4]) | IC50 [1] | IC50 [2] | EC50 (human topoisomerase II) | MTD ([3]; sc) | EC50 (human topoisomerase II; footnote c: bell-shaped dose response curve noted, 50% of maximal effect of mAMSA) | MTD ([3]; iv) |
| --- | --- | --- | --- | --- | --- | --- | --- |
| CCN(CC)CCCn1nc2c3cc(F)c(-c4cc(C)nc(C)c4)c(F)c3n(C3CC3)cc-2c1=O [Example 16] | 6 µM | 0.49 µM | 1.2 µM |  |  |  |  |
| Cc1cc(-c2c(F)cc3c4nn(CCN5CCCC5)c(=O)c-4cn(C4CC4)c3c2F)cc(C)n1 [Example 18] |  | 0.3 µM | 0.035 µM | 650 µM |  |  |  |
| Cc1cc(-c2c(F)cc3c4nn(CCN5CCOCC5)c(=O)c-4cn(C4CC4)c3c2F)cc(C)n1 [Example 20] | 48 µM | 2.8 µM | 0.41 µM |  |  |  |  |
| Cc1cc(-c2c(F)cc3c4nn(-c5ccccc5)c(=O)c-4cn(C4CC4)c3c2F)cc(C)n1 [Example 22] | 2.7 µM |  | 0.84 µM |  | 635 mg/kg |  |  |
| COc1ccc(-n2nc3c4cc(F)c(-c5cc(C)nc(C)c5)c(F)c4n(C4CC4)cc-3c2=O)cc1 [Example 23] |  |  | 5.2 µM |  | 1150 mg/kg | 6.8 µM | 140 mg/kg |
| Cc1cc(-c2c(F)cc3c4nn(C5CCCCC5)c(=O)c-4cn(C4CC4)c3c2F)cc(C)n1 [Example 40] | 0.9 µM | 0.68 µM | 0.19 µM |  |  |  |  |
| Cc1cc(-c2c(F)cc3c4nn(C5CCCC5)c(=O)c-4cn(C4CC4)c3c2F)cc(C)n1 [Example 41] | 4 µM | 1.1 µM | 0.38 µM |  |  |  |  |
| Cc1cc(-c2c(F)cc3c4nn(C5CCCCCC5)c(=O)c-4cn(C4CC4)c3c2F)cc(C)n1 [Example 42] | 2.9 µM | 4.2 µM | 1.5 µM |  |  |  |  |
| Cc1cc(-c2c(F)cc3c4nn(CC5CCCCC5)c(=O)c-4cn(C4CC4)c3c2F)cc(C)n1 [Example 43] | 8.2 µM | 6.7 µM | 4.9 µM |  |  |  |  |
| Cc1cc(-c2c(F)cc3c4nn(C5CCOCC5)c(=O)c-4cn(C4CC4)c3c2F)cc(C)n1 [Example 46] | 1.7 µM | 0.29 µM | 0.25 µM |  |  |  |  |
| Cc1cc(-c2c(F)cc3c4nn(C5CCNCC5)c(=O)c-4cn(C4CC4)c3c2F)cc(C)n1 [Example 49] | 5.6 µM | 2.3 µM | 2.5 µM |  |  |  |  |
| Cc1cc(-c2c(F)cc3c4nn(C5CCN(C)CC5)c(=O)c-4cn(C4CC4)c3c2F)cc(C)n1 [Example 50] | 3.2 µM | 0.094 µM |  |  |  |  | 128 mg/kg |
| CC(=O)N[C@H]1CC[C@@H](n2nc3c4cc(F)c(-c5cc(C)nc(C)c5)c(F)c4n(C4CC4)cc-3c2=O)CC1 [Example 52a] | 7.4 µM | 1.3 µM |  |  |  |  |  |
| CC(=O)N[C@H]1CC[C@H](n2nc3c4cc(F)c(-c5cc(C)nc(C)c5)c(F)c4n(C4CC4)cc-3c2=O)CC1 [Example 52b] | 9.8 µM | 1.2 µM |  |  |  |  |  |
| Cc1cc(-c2c(F)cc3c4nn(CCCCN(C)C)c(=O)c-4cn(C4CC4)c3c2F)cc(C)n1 [Example 54, 5-Cyclopropyl-6,8-difluoro-2,5-dihydro-2-[4-(dimethylamino)-butyl]-7-(2,6-dimethyl-4-pyridinyl) -3H-pyrazolo[4,3-c]quinolin-3-one] | 15 µM | 0.4 µM | 0.5 µM |  |  |  |  |
| Cc1cc(-c2c(F)cc3c4nn(CCNC(C)(CO)CO)c(=O)c-4cn(C4CC4)c3c2F)cc(C)n1 [Example 55] | 11 µM | 11 µM | 25 µM |  |  |  |  |
| Cc1cc(-c2c(F)cc3c4nn([C@H]5CC[C@@H](NC=O)CC5)c(=O)c-4cn(C4CC4)c3c2F)cc(C)n1 [Example 57, 2-(cis-4-formamidocyclohexyl)-5-cyclopropyl-6,8-difluoro-2,5-dihydro-7-(2,6-dimethyl-4-pyridinyl)-3H-pyrazolo[4,3-c]quinolin-3-one] | 0.8 µM | 5.1 µM |  |  |  |  |  |
| Cc1cc(-c2c(F)cc3c4nn([C@H]5CC[C@H](NC=O)CC5)c(=O)c-4cn(C4CC4)c3c2F)cc(C)n1 [Example 58, 2-(trans-4-formamidocyclohexyl)-5-cyclopropyl-6,8-difluoro-2,5-dihydro-7-(2,6-dimethyl-4-pyridinyl)-3H-pyrazolo[4,3-c]quinolin-3-one] | 1.5 µM | 9.1 µM |  |  |  |  |  |
